The source of these data is patent US20040214856A1, “Cannabinoid receptor ligands and uses thereof” (Pfizer Inc, priority 2003, published 2004).

This test deals with CB-1 receptor. In words: CB-1 receptor binding assay ([3H]SR141716A displacement). Conditions: inhibition of [3H]SR141716A binding; rat or human protocol not specified. The method, then:
The following assays were designed to detect compounds that inhibit the binding of [^3H] SR141716A (selective radiolabeled CB-1 ligand) and [^3H] 5-(1,1-dimethylheptyl)-2-[5-hydroxy-2-(3-hydroxypropyl)-cyclohexyl]-phenol; radiolabeled CB-1/CB-2 ligand) to their respective receptors.
PelFreeze brains (available from Pel Freeze Biologicals, Rogers, Arkansas) were cut up and placed in tissue preparation buffer (5 mM Tris HCl, pH=7.4 and 2 mM EDTA), polytroned at high speed and kept on ice for 15 minutes. The homogenate was then spun at 1,000×g for 5 minutes at 4° C. The supernatant was recovered and centrifuged at 100,000×G for 1 hour at 4° C. The pellet was then re-suspended in 25 ml of TME ([…], pH=7.4, 5 mM MgCl2, and 1 mM EDTA) per brain used. A protein assay was performed and 200 μl of tissue totaling 20 μg was added to the assay.
The test compounds were diluted in drug buffer (0.5% BSA, 10% DMSO and TME) and then 25 μl were added to a deep well polypropylene plate. [^3H] […] In the morning the filters were counted on a Wallac Betaplate™ counter (available from PerkinElmer Life Sciences™, Boston, Mass.). […]
The test compounds were diluted in drug buffer (0.5% BSA, 10% DMSO and TME) and then 25 μl were added to a deep well polypropylene plate. […] In the morning the filters were counted on a Wallac Betaplate™ counter (available from PerkinElmer Life Sciences™, Boston, Mass.).

Each structure is given as a SMILES string.

As to `CC(C)N1Cc2nn(-c3ccccc3Cl)c(-c3ccc(C#N)cc3)c2C1=O` [Example 1A-2, 2-(2-chloro-phenyl)-5-isopropyl-3-(4-cyano-phenyl)-5,6-dihydro-2H-pyrrolo[3,4-c]pyrazol-4-one], the CB-1 binding activities is 4 nM.

`CC(C)N1Cc2nn(-c3ccccc3Cl)c(-c3ccc(Cl)cc3)c2C1=O` [Example 1A-3, 2-(2-chloro-phenyl)-5-isopropyl-3-(4-chloro-phenyl)-5,6-dihydro-2H-pyrrolo[3,4-c]pyrazol-4-one] displayed a CB-1 binding activities of 2 nM.
